In patent EP3995135B1, “PROLONGED RELEASE DOSAGE FORM OF […]-(+)- TARTARIC ACID SALT” (Grünenthal GmbH, priority 2020, dated 2022):
Structures can show the parent of a compound that is named as a salt.

Key:
[1] = Intrinsic dissolution (dissolution rate) of compressed salt samples in a Wood apparatus; type: physicochemical; conditions: 37°C, 900 ml, 50 U/min
Protocol: 100 mg Tapentadol, entweder in Form des Hydrochloridsalzes oder des Salzes mit L-(+)-Weinsäure wurden mit einer Presskraft von 200 kg (gravitativ) bei einer Oberfläche von 0,5 cm^2 1 Minute verpresst. Die so erhaltenen verpressten Proben wurden in einem Wood-Apparat bei 37°C in 900 ml Auflösungsmedium bei verschiedenen pH-Werten und einer Paddeldrehgeschwindigkeit von 50 U/min auf ihre Auflösungsrate untersucht.

[2] = Thermodynamic solubility (saturation solubility, HPLC quantification as free base); type: physicochemical; conditions: for Thermodynamische Löslichkeit, Assay ausgedrückt als Base: 24 h at 25°C; for pH Ende: pH of the solution at the end (24 h, 25°C); for pH Start: pH of the solution at the start
Protocol: Die thermodynamische Löslichkeit von Tapentadolhydrochlorid und des Salzes von Tapentadol mit L-(+)-Weinsäure wurde als Sättigungslöslichkeit in verschiedenen Medien bei verschiedenen pH-Werten bestimmt. Die Lösungen wurden 24 Stunden bei 25°C gerührt und die pH-Werte der Lösungen zu Beginn und am Ende der Experimente wurden gemessen. Die gelöste Menge an Tapentadol wurde durch HPLC quantifiziert (freie Base von Tapentadol). Die experimentellen Ergebnisse sind in der Tabelle unten zusammengestellt: […]

Structure (SMILES) | intrinsische Auflösung (Auflösungsrate) ([1]; pH 1,0, 0 min) | intrinsische Auflösung (Auflösungsrate) ([1]; pH 1,0, 1 min) | intrinsische Auflösung (Auflösungsrate) ([1]; pH 1,0, 3 min) | intrinsische Auflösung (Auflösungsrate) ([1]; pH 1,0, 5 min) | intrinsische Auflösung (Auflösungsrate) ([1]; pH 4,5, 0 min) | intrinsische Auflösung (Auflösungsrate) ([1]; pH 4,5, 1 min) | intrinsische Auflösung (Auflösungsrate) ([1]; pH 4,5, 3 min) | intrinsische Auflösung (Auflösungsrate) ([1]; pH 4,5, 5 min) | intrinsische Auflösung (Auflösungsrate) ([1]; pH 6,8, 0 min) | intrinsische Auflösung (Auflösungsrate) ([1]; pH 6,8, 1 min) | intrinsische Auflösung (Auflösungsrate) ([1]; pH 6,8, 3 min) | intrinsische Auflösung (Auflösungsrate) ([1]; pH 6,8, 5 min) | intrinsische Auflösung (Auflösungsrate) ([1]; pH 7,4, 0 min) | intrinsische Auflösung (Auflösungsrate) ([1]; pH 7,4, 1 min) | intrinsische Auflösung (Auflösungsrate) ([1]; pH 7,4, 3 min) | intrinsische Auflösung (Auflösungsrate) ([1]; pH 7,4, 5 min) | Thermodynamische Löslichkeit, Assay ausgedrückt als Base ([2]; medium 0,1 M HCl) | Thermodynamische Löslichkeit, Assay ausgedrückt als Base ([2]; medium Acetat pH 4,5) | Thermodynamische Löslichkeit, Assay ausgedrückt als Base ([2]; medium SIF sp pH 6,8) | Thermodynamische Löslichkeit, Assay ausgedrückt als Base ([2]; medium Wasser) | further results
CC[C@@H](c1cccc(O)c1)[C@@H](C)CN(C)C [Tapentadolhydrochlorid, (-)-(1R,2R)-3-(3-Dimethylamino-1-ethyl-2-methylpropyl)phenol, reference compound] | 0% | 52% | 95% | 99% | 0% | 60% | 91% | 95% | 0% | 38% | 79% | 92% | 0% | 27% | 65% | 80% | 31,2 g/100 ml | 32,7 g/100 ml | 32,4 g/100 ml | 33,0 g/100 ml | Thermodynamische Löslichkeit, Assay ausgedrückt als Base ([2]; medium Citrat pH 7.4): 31,9 g/100 ml; pH Ende ([2]; medium 0,1 M HCl): 0,83; pH Ende ([2]; medium Acetat pH 4,5): 4,29; pH Ende ([2]; medium Citrat pH 7.4): 6,33; pH Ende ([2]; medium SIF sp pH 6,8): 6,23; pH Ende ([2]; medium Wasser): 4,63; pH Start ([2]; medium 0,1 M HCl): 1,11; pH Start ([2]; medium Acetat pH 4,5): 4,54; pH Start ([2]; medium Citrat pH 7.4): 7,39; pH Start ([2]; medium SIF sp pH 6,8): 6,82
CC[C@@H](c1cccc(O)c1)[C@@H](C)CN(C)C [Salz von Tapentadol mit L-(+)-Weinsäure, (-)-(1R,2R)-3-(3-Dimethylamino-1-ethyl-2-methylpropyl)phenol] | 0% | 19% | 51% | 77% | 0% | 20% | 51% | 77% | 0% | 19% | 44% | 67% | 0% | 18% | 44% | 65% | 26,7 g/100 ml | 26,6 g/100 ml | 12,6 g/100 ml | 26,4 g/100 ml | Thermodynamische Löslichkeit, Assay ausgedrückt als Base ([2]; medium Phosphat pH 7,4): 12,9 g/100 ml; pH Ende ([2]; medium 0,1 M HCl): 3,39; pH Ende ([2]; medium Acetat pH 4,5): 3,53; pH Ende ([2]; medium Phosphat pH 7,4): 3,56; pH Ende ([2]; medium SIF sp pH 6,8): 3,55; pH Ende ([2]; medium Wasser): 3,38; pH Start ([2]; medium 0,1 M HCl): 1,15; pH Start ([2]; medium Acetat pH 4,5): 4,51; pH Start ([2]; medium Phosphat pH 7,4): 7,53; pH Start ([2]; medium SIF sp pH 6,8): 6,83; pH Start ([2]; medium Wasser): 6,19
